The source of these data is ChEMBL document CHEMBL3870342, “New polyhydroxytriterpenoid derivatives from fruits of Terminalia chebula Retz. and their α-glucosidase and α-amylase inhibitory activity” (Bioorg Med Chem Lett, 2017).

In one assay the test system is Saccharomyces cerevisiae. Kind of assay: Inhibition of Saccharomyces cerevisiae alpha-glucosidase using PNPG as substrate at 200 uM preincubated for 10 mins followed by substrate addition measured after 10 mins.
Assay [1] concerns the target T1, Pancreatic alpha-amylase (Sus scrofa) (UniProt P00690).
T1 sequence (whole entry): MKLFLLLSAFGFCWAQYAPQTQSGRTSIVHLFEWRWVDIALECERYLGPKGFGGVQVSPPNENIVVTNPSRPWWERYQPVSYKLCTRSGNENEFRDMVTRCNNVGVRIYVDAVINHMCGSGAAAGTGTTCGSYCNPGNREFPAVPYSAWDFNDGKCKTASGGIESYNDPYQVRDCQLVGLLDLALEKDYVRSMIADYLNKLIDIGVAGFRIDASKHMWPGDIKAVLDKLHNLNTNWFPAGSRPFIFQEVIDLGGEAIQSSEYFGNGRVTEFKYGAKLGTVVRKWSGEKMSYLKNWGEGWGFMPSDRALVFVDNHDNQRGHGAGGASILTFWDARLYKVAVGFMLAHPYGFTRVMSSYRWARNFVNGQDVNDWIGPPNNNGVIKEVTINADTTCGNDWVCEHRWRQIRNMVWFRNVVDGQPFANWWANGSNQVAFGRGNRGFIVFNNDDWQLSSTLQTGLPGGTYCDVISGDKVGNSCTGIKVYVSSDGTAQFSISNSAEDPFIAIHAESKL
Kind of assay: Inhibition of pig pancreas alpha-amylase using potato starch as substrate at 200 uM after 15 mins.

A further assay is filed under the species Rattus norvegicus. Nature of the assay: Inhibition of rat intestinal alpha-glucosidase using PNPG as substrate at 200 uM after 30 mins.
A short description of assay [2]: Inhibition of Saccharomyces cerevisiae alpha-glucosidase using PNPG as substrate preincubated for 10 mins followed by substrate addition measured after 10 mins.

Each structure is given as a SMILES string.

By inhibition is commonly meant the relative decrease from the control value, in per cent. Read a low inhibition as a weak effect. With `CC1(C)CC[C@]2(C(=O)O[C@@H]3O[C@H](CO)[C@@H](O)[C@H](O)[C@H]3O)CC[C@]3(C)C(=CC[C@@H]4[C@@]5(C)CC[C@H](O)[C@@](C)(CO)[C@@H]5CC[C@]43C)[C@@H]2[C@@H]1O`, the results for the inhibition (in the assay on Saccharomyces cerevisiae; in assay [1]; in the assay listed under Rattus norvegicus) were 20.7%, 5.6% and 9.7%, respectively.
For `CC1(C)CC[C@]2(C(=O)O)CC[C@]3(C)C(=CC[C@@H]4[C@@]5(C)C[C@@H](O)[C@H](O)[C@@](C)(CO)[C@@H]5CC[C@]43C)[C@@H]2[C@@H]1O` the same measures were 4.4%, 1.7% and 2.8%.
For `CC1(C)CC[C@]2(C(=O)O)CC[C@]3(C)C(=CC[C@@H]4[C@@]5(C)C[C@@H](O)[C@H](O)C(C)(C)[C@@H]5CC[C@]43C)[C@@H]2[C@@H]1O` the same measures were 48.2%, 6.2% and 7.8%.
Take `CC1(C)CC[C@]2(C(=O)O[C@@H]3O[C@H](CO)[C@@H](O)[C@H](O)[C@H]3O)CC[C@]3(C)C(=CC[C@@H]4[C@@]5(C)C[C@@H](O)[C@H](O)[C@@](C)(CO)[C@@H]5CC[C@]43C)[C@@H]2[C@@H]1O`: the inhibition with Saccharomyces cerevisiae came to 3.1%.
For `CC1(C)CC[C@]2(C(=O)O)CC[C@]3(C)C(=CC[C@@H]4[C@@]5(C)C[C@@H](O)[C@H](O)[C@@](C)(CO)[C@@H]5[C@H](O)C[C@]43C)[C@@H]2C1`, the results for the inhibition (in the assay on Saccharomyces cerevisiae; in assay [1]; in the assay listed under Rattus norvegicus) were 21%, 7.5% and 10.1%, respectively.
Taken in the same sequence, the figures for `CC1(C)CC[C@]2(C(=O)O)CC[C@]3(C)C(=CC[C@@H]4[C@@]5(C)C[C@@H](O)[C@H](O)[C@@](C)(COC(=O)[C@H](CC(=O)O)C[C@H]6c7c(cc(O)c(O)c7O)C(=O)O[C@@H]6C(=O)O)[C@@H]5CC[C@]43C)[C@@H]2[C@@H]1O` were 40.1%, 3.3% and 8.5%.
`CC1=C2C3=CC[C@@H]4[C@@]5(C)C[C@@H](O)[C@H](O)[C@@](C)(CO)[C@@H]5CC[C@@]4(C)[C@]3(C)CC[C@@]2(C(=O)O[C@@H]2O[C@H](CO)[C@@H](O)[C@H](O)[C@H]2O)CC[C@H]1C`: the figures for the inhibition (with Saccharomyces cerevisiae; in assay [1]; in the assay listed under Rattus norvegicus) were 25.1%, 2.4% and 7.3%, respectively.
For `CC1(C)CC[C@]2(C(=O)O[C@@H]3O[C@H](CO)[C@@H](O)[C@H](O)[C@H]3O)CC[C@]3(C)C(=CC[C@@H]4[C@@]5(C)C[C@@H](O)[C@H](O)[C@@](C)(COC(=O)[C@@H](CC(=O)O)C[C@H]6c7c(cc(O)c(O)c7O)C(=O)O[C@@H]6C(=O)O)[C@@H]5CC[C@]43C)[C@@H]2[C@@H]1O` the same measures were 8.2%, 4.4% and 6.7%.
Taken in the same sequence, the figures for `CC1(C)CC[C@]2(C(=O)O[C@@H]3O[C@H](CO)[C@@H](O)[C@H](O)[C@H]3O)CC[C@]3(C)C(=CC[C@@H]4[C@@]5(C)C[C@@H](O)[C@H](O)C(C)(C)[C@@H]5CC[C@]43C)[C@@H]2[C@@H]1O` were 36.1%, 7.2% and 7.8%.
For `CC1(C)CC[C@]2(C(=O)O[C@@H]3O[C@H](CO)[C@@H](O)[C@H](O)[C@H]3O)CC[C@]3(C)C(=CC[C@@H]4[C@@]5(C)C[C@@H](O)[C@H](O)[C@@](C)(CO)[C@@H]5CC[C@]43C)[C@@H]2C1` the same measures were 4%, 5.9% and 6.4%.
As a reminder, the IC50 is the concentration at which inhibition is half-maximal. A low value points to greater potency in that assay. For `C[C@H]1O[C@H](O[C@H]2[C@H](O)[C@@H](O)[C@@H](O[C@H]3[C@H](O)[C@@H](O)C(O)O[C@@H]3CO)O[C@@H]2CO)[C@H](O)[C@@H](O)[C@@H]1N[C@H]1C=C(CO)[C@@H](O)[C@H](O)[C@H]1O` (stereo not given in full) [ACARBOSE], the values for the inhibition (in the assay with Saccharomyces cerevisiae; in assay [1]; in the assay filed under Rattus norvegicus) were 58.6%, 82.1% and 69.3%, respectively. The compound also yielded an IC50 in assay [2] of 174 µM.
`CC1(C)CC[C@]2(C(=O)O)CC[C@]3(C)C(=CC[C@@H]4[C@@]5(C)C[C@@H](O)[C@H](O)[C@@](C)(CO)[C@@H]5CC[C@]43C)[C@@H]2C1`: the inhibition in the assay with Saccharomyces cerevisiae was 48.8%; in assay [1] it was 9.7%; in the assay filed under Rattus norvegicus it was 4.7%.
